Article PMC7796460, “Relation of Metal-Binding Property and Selective Toxicity of 8-Hydroxyquinoline Derived Mannich Bases Targeting Multidrug Resistant Cancer Cells” (Cancers, 2021)

Tests used:
[1] = tested on: NCI-ADRres cells; assay: MTT viability assay, NCI-ADRres; format: cell-based; conditions: for IC50: Homo sapiens, NCI/ADR-RES, 72 h, MTT 72 h; for SR NCI-ADRres: IC50 OVCAR-8 vs. NCI-ADRres
From the text: (§1) MDCK II canine kidney cells, A431 epidermoid carcinoma cells, the human uterine sarcoma cell lines MES-SA and the doxorubicin selected MES-SA-Dx5 were obtained from ATCC (MDCK II: No. CRL-2936™, A431: No. CRL-1555™, MES-SA: No. CRL-1976™, MES-SA/Dx5: No. CRL-1977™). ABCB1 was expressed in A431 and MES-SA cells using lentiviral transduction. The human cervix carcinoma cell line KB-3-1 and the vinblastine selected KB-v1were kind gifts from Dr. Michael M. Gottesman, National Institutes of Health. The phenotype of the resistant cells was verified using cytotoxicity assays. MDCK-B1 and MDCK-MM were established by the Sleeping Beauty transposon-based gene delivery system. OVCAR-8 and NCI-ADRres cells (obtained from the Division of Cancer Treatment and Diagnosis (DCTD) Tumor Repository (National Cancer Institute, Frederick, MD, USA)) were cultivated in RPMI-1640 (Sigma Aldrich, Budapest, Hungary), and other cell lines were cultivated in Dulbecco’s Modified Eagle Medium (DMEM, Sigma Aldrich, Budapest, Hungary), supplemented with 10% fetal bovine serum, 5 mM glutamine, and 50 unit/mL penicillin and streptomycin (Life Technologies, Carlsbad, CA, USA). All cell lines were cultivated at 37 °C, 5% CO2.
(§2) MTT viability assays were performed as described earlier with minor modifications. Briefly, cells were seeded into 96-well tissue culture plates (Sarstedt, Newton, NC, USA/Orange, Braine-l’Alleud, Belgium) at a density of 5000 cells/well and allowed to attach overnight. Test compounds were added to achieve the required final concentration in a final volume of 100 µL per well. After an incubation period of 72 h, the supernatant was removed and fresh medium containing the MTT reagent (0.083 mg/mL) was added. Incubation with MTT at 37 °C was terminated after 1 h by removing the supernatant and lysing the cells with 100 µL DMSO per well. Viability of the cells was measured spectrophotometrically based on the absorbance values at 540 nm using either a Perkin Elmer Victor X3 or an EnSpire microplate reader. Data were background corrected by subtraction of the signal obtained from unstained cell lysates and normalized to untreated cells. Curves were fitted by Prism software (GraphPad Software Inc., San Diego, CA, USA) using the sigmoidal dose-response model (comparing variable and fixed slopes). […] Significance was calculated using unpaired t-tests; results are given as *: p ≤ 0.05, **: p ≤ 0.01, ***: p ≤ 0.001, ****: p ≤ 0.0001.

[2] = tested on: KB-3-1 cells; assay: MTT viability assay, KB-3-1; format: cell-based; conditions: Homo sapiens, KB 3-1, 72 h, MTT 72 h
From the text: as §1, §2

[3] = tested on: MES-SA/Dx5 cells; assay: ROS determination with DCFDA, MES-SA/Dx5; format: cell-based, human; conditions: 2 h
Procedure: Measurements were performed as described earlier. Briefly, cells were harvested, washed with PBS, and incubated with 10 µM DCFDA in a water bath shaker at 37 °C for 30 min in a density of 3 × 10^6 cells/mL. After washing with PBS, cells were seeded to 96-well plates in PBS in a density of 2 × 10^4 cells/well. Following the measurement of the basal fluorescence, test compounds were added in different concentrations and the fluorescence of the samples was followed at time intervals of 10 min. DCFDA solution in buffer was used as a cell free control to test for interaction of the test compounds with DCFDA. Data were analyzed as fold change of fluorescence compared to basal levels and untreated cells. Significance was calculated using unpaired t-tests; results are given as *: p ≤ 0.05, **: p ≤ 0.01, ***: p ≤ 0.001, ****: p ≤ 0.0001.
Table S3: Characterization of intracellular ROS production with the DCFDA assay for P -gp negative MES-SA and P-gp positive MES-SA/Dx5 cells. Fold changes in fluorescence are shown after a 2 h with the investigated 8 -hydroxyquinoline ligands. Data S-refer to Figure 7 and allow […]
concentration range from 6.25µ M to 50µ M. Fold change of fluorescence obtained in the presence of 5 mM NAC is given in brackets.

[4] = tested on: MES-SA, MES-SA/Dx5 and MES-SA/B1 cells; assay: TXRF intracellular copper levels; format: cell-based, human; conditions: for Intracellular copper levels: 1 µM ligand with 5 µM CuCl2, 4 h (Figure 4B)
Procedure: Cells were seeded to 6-well plates in a density of 1.5 Mio cells/well and allowed to attach overnight. Following a washing step with phosphate buffered saline (PBS), cells were incubated in serum free DMEM. For the iron-level measurements, cells were preloaded with 25 µM holo-transferrin for 4 h and, after a washing step with serum free DMEM, cells were incubated with 5 µM of each ligand for 8 h. For the detection of copper levels, cells were treated with 1 µM of the ligands in the presence of 5 µM CuCl2 for 4 h. Following incubation, cells were harvested upon trypsination, washed twice with PBS, counted and the resulting pellets were digested in 20 μL of 30% H2O2, 80 μL of 65% HNO3. 10 μL of 15 µg/mL Ga(NO3)3 (in nitric acid) was added as an internal standard upon digestion for 24 h at room temperature. From the resulting solutions, 2 μL were pipetted on the quartz reflectors used for total-reflection X-ray fluorescence (TXRF) analysis. For the determination of the intracellular Cu content, the TXRF method was used as previously reported. Briefly, all determinations were performed on an Atomika 8030C TXRF spectrometer (Atomika Instruments GmbH, Oberschleissheim, Germany). The stock solution of 1000 mg/L Ga was purchased from Merck (Darmstadt, Germany). The Kα line used for determination of Fe and Cu were at 6.403 and 8.047 keV. […] Significance was calculated using unpaired t-tests; results are given as *: p ≤ 0.05, **: p ≤ 0.01, ***: p ≤ 0.001, ****: p ≤ 0.0001.
Figure 4 Effect of the compounds on intracellular metal levels. (A) Iron levels of MES-SA (open columns) and MES-SA/B1 cells in absence (dark red squared columns) and presence of Pgp inhibitor Tariquidar (bright red squared columns). Cells were loaded with 25 µM holo-transferrin (4 h), followed by an incubation (8 h) without (ctr) or with 5 µM of ligands Q-1, Q-2, Q-3, and Q-4. […] (B) Cellular copper levels measured following a 4 h co-administration of compounds Q-1, Q-2, Q-3, and Q-4 (1 µM) and CuCl2 (5 µM) in MES-SA (open columns), MES-SA/Dx5 (filled columns) and MES-SA-B1 (squared columns) cells. Significance is given as *: p ≤ 0.05, **: p ≤ 0.01, ***: p ≤ 0.001.

[5] = presence of 1 µM Tariquidar (values in brackets)
[6] = presence of 1 µM Tariquidar (brackets)
[7] = MES-SA/Dx5, 6.25 µM, presence of 5 mM NAC (brackets)
[8] = MES-SA/Dx5, 12.5 µM, presence of 5 mM NAC (brackets)
[9] = MES-SA/Dx5, 25 µM, presence of 5 mM NAC (brackets)
[10] = MES-SA/Dx5, 50 µM, presence of 5 mM NAC (brackets)

Row | SMILES | IC50 ([1]; absence of Tariquidar) | IC50 [1, 5] | SR NCI-ADRres ([1]; absence of Tariquidar) | SR NCI-ADRres [1, 6] | IC50 ([2]; absence of Tariquidar) | IC50 [2, 5] | Fold change in fluorescence (DCFDA) ([3]; MES-SA/Dx5, 6.25 µM) | Fold change in fluorescence (DCFDA) [3, 7] | Fold change in fluorescence (DCFDA) ([3]; MES-SA/Dx5, 12.5 µM) | Fold change in fluorescence (DCFDA) [3, 8] | Fold change in fluorescence (DCFDA) ([3]; MES-SA/Dx5, 25 µM) | Fold change in fluorescence (DCFDA) [3, 9] | Fold change in fluorescence (DCFDA) ([3]; MES-SA/Dx5, 50 µM) | Fold change in fluorescence (DCFDA) [3, 10] | Intracellular copper levels [4] | Increase in copper uptake ([4]; 1 µM ligand with 5 µM CuCl2, 4 h)
1 | Oc1cccc2cccnc12 [Compound Q-1, 8-Hydroxyquinoline] | 1.84 ± 0.3 µM | 2.65 µM | 1.88 | 1.29 | 8.59 ± 2.92 µM | 10.9 µM | 1.006± 0.15 | 1.085± 0.11 | 0.720± 0.21 | 1.071± 0.12 | 0.713± 0.21 | 0.971± 0.17 | 0.725± 0.18 | 0.918± 0.10 | significantly increased copper levels | 
2 | Oc1c(CNCc2ccccc2F)cc(Cl)c2cccnc12 [Compound Q-4, 5-chloro-7-((2-fluorobenzylamino)methyl)quinolin-8-ol] | 0.14 ± 0.07 µM | 1.15 µM | 7.84 |  | 1.75 ± 0.62 µM | 2.65 µM | 1.238± 0.28 | 1.191± 0.07 | 1.396± 0.35 | 1.337± 0.26 | 1.340± 0.26 | 1.320± 0.31 | 1.286± 0.30 | 1.283± 0.20 | significantly increased copper levels | 
3 | Oc1c(CN2CCCCC2)ccc2cccnc12 [Compound Q-3, 7-(piperidin-1-ylmethyl)quinolin-8-ol] | 0.68 ± 0.09 µM | 4.22 µM | 4.60 | 0.88 | 6.19 ± 0.12 µM | 6.69 µM | 1.449± 0.46 | 0.954± 0.15 | 1.400± 0.18 | 1.050± 0.09 | 1.586± 0.22 | 1.201± 0.17 | 1.786± 0.36 | 1.189± 0.18 |  | 10 fold
4 | Oc1c(CN2CCOCC2)ccc2cccnc12 [Compound Q-2, 7-(morpho-lino-methyl)quinolin-8-ol] | 2.84 ± 0.81 µM | 5.41 µM | 1.11 | 0.61 | 9.55 ± 2.55 µM | 11.7 µM | 1.863± 0.81 | 1.024± 0.19 | 2.324± 1.25 | 1.137± 0.32 | 3.348± 2.35 | 1.074± 0.28 | 4.103± 2.67 | 1.154± 0.22 | significantly increased copper levels | 
